This is an account of results in PubChem BioAssay AID180 (DTP/NCI, 2004).

The test has as its system BDF1 mice, Adenocarcinoma 755 s.c., tumor weight T/C. Put plainly: NCI In Vivo Anticancer Drug Screen. Data for tumor model Adenocarcinoma 755 (subcutaneous) in B6D2F1 (BDF1) mice. To be noted: endpoint: mean tumor weight, higher = larger tumour. Put shortly: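 Transplantable tumor implanted; mice dosed with compound or vehicle; survival or tumor size recorded; ratio of treated to vehicle control reported.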

Setting [1] is: dose: 30.0 mg/kg/injection, schedule: Q01DX011 (ip), vehicle: carboxymethylcellulose (CMC).
Where [2] appears, read: dose: 60.0 mg/kg/injection, schedule: Q01DX011 (ip), vehicle: carboxymethylcellulose (CMC).
The mark [3] stands for this setting: dose: 120.0 mg/kg/injection, schedule: Q01DX011 (ip), vehicle: carboxymethylcellulose (CMC).
[4] abbreviates: dose: 240.0 mg/kg/injection, schedule: Q01DX011 (ip), vehicle: carboxymethylcellulose (CMC).

Several values for one entry are separate records, joined by “and”; a condition that tells them apart may be missing. Equal values may be shown once.

As for `N#CCCNC(=O)Nc1ccccc1`, the T/C (as a rule, the ratio of treated to control) (dose: 15.0 mg/kg/injection, schedule: Q01DX011 (ip), vehicle: methylcellulose (MC)) was 63 % of control; the T/C (dose: 31.0 mg/kg/injection, schedule: Q01DX011 (ip), vehicle: methylcellulose (MC)) is 74 % of control; the T/C (dose: 62.0 mg/kg/injection, schedule: Q01DX011 (ip), vehicle: methylcellulose (MC)) is 58 % of control; the T/C (dose: 125.0 mg/kg/injection, schedule: Q01DX011 (ip), vehicle: methylcellulose (MC)) is 101 % of control; the T/C (dose: 250.0 mg/kg/injection, schedule: Q01DX011 (ip), vehicle: methylcellulose (MC)) is 93 % of control.
On to `O=C(Nc1ccc(N=Nc2ccc(O)c(C(=O)O)c2)c(S(=O)(=O)O)c1)c1ccc(C(=O)Nc2ccc(N=Nc3ccc(O)c(C(=O)O)c3)c(S(=O)(=O)O)c2)cc1`, for which the T/C runs as follows: under setting [1], 82 % of control; under setting [2], 64 % of control; under setting [3], 70 % of control; under setting [4], 42 % of control.
With `COc1cc2c3c(c4cc(OC)c(OC)cc4c2cc1OC)CN1CCC[C@H]1C3`, the T/C (dose: 8.8 mg/kg/injection, schedule: Q01DX006 (ip), vehicle: water) is 89 % of control and 71 % of control; the T/C (dose: 20.0 mg/kg/injection, schedule: Q01DX006 (ip), vehicle: water) is 50 % of control.
Turning to `NC(Cc1ccc(N(CCCl)CCCl)cc1)C(=O)O` (stereo unspecified), the T/C reads like this: (dose: 0.32 mg/kg/injection, schedule: Q01DX011 (ip), vehicle: carboxymethylcellulose (CMC)) 58 % of control; (dose: 0.62 mg/kg/injection, schedule: Q01DX011 (ip), vehicle: carboxymethylcellulose (CMC)) 87 % of control and 66 % of control; (dose: 0.64 mg/kg/injection, schedule: Q01DX011 (ip), vehicle: carboxymethylcellulose (CMC)) 32 % of control; (dose: 0.83 mg/kg/injection, schedule: Q01DX011 (ip), vehicle: carboxymethylcellulose (CMC)) 46 % of control; (dose: 1.0 mg/kg/injection, schedule: Q01DX011 (ip), vehicle: methylcellulose (MC)) 82 % of control; (dose: 1.28 mg/kg/injection, schedule: Q01DX011 (ip), vehicle: carboxymethylcellulose (CMC)) 23 % of control. Also, the T/C runs as follows: (dose: 1.38 mg/kg/injection, schedule: Q01DX011 (ip), vehicle: carboxymethylcellulose (CMC)) 20 % of control; (dose: 1.5 mg/kg/injection, schedule: Q01DX011 (ip), vehicle: methylcellulose (MC)) 26 % of control; (dose: 1.67 mg/kg/injection, schedule: Q01DX011 (ip), vehicle: carboxymethylcellulose (CMC)) 39 % of control; (dose: 1.73 mg/kg/injection, schedule: Q01DX011 (ip), vehicle: carboxymethylcellulose (CMC)) 19 % of control; (dose: 2.0 mg/kg/injection, schedule: Q01DX011 (ip), vehicle: methylcellulose (MC)) 30 % of control; (dose: 2.3 mg/kg/injection, schedule: Q01DX011 (ip), vehicle: carboxymethylcellulose (CMC)) 23 % of control. Further, the T/C was 9 % of control (dose: 2.56 mg/kg/injection, schedule: Q01DX011 (ip), vehicle: carboxymethylcellulose (CMC)); 14 % of control (dose: 3.0 mg/kg/injection, schedule: Q01DX011 (ip), vehicle: methylcellulose (MC)); 9 % of control (dose: 3.35 mg/kg/injection, schedule: Q01DX011 (ip), vehicle: carboxymethylcellulose (CMC)); 12 % of control (dose: 3.45 mg/kg/injection, schedule: Q01DX011 (ip), vehicle: carboxymethylcellulose (CMC)); 12 % of control (dose: 4.0 mg/kg/injection, schedule: Q01DX011 (ip), vehicle: methylcellulose (MC)); 11 % of control and 30 % of control (dose: 5.0 mg/kg/injection, schedule: Q01DX011 (ip), vehicle: carboxymethylcellulose (CMC)). Also, the T/C is 5 % of control (dose: 6.0 mg/kg/injection, schedule: Q01DX011 (ip), vehicle: methylcellulose (MC)); 5 % of control (dose: 6.25 mg/kg/injection, schedule: Q01DX011 (ip), vehicle: methylcellulose (MC)); 4 % of control (dose: 6.7 mg/kg/injection, schedule: Q01DX011 (ip), vehicle: carboxymethylcellulose (CMC)); 8 % of control (dose: 6.9 mg/kg/injection, schedule: Q01DX011 (ip), vehicle: carboxymethylcellulose (CMC)); 6 % of control (dose: 8.0 mg/kg/injection, schedule: Q01DX011 (ip), vehicle: methylcellulose (MC)); 4 % of control (dose: 10.0 mg/kg/injection, schedule: Q01DX011 (ip), vehicle: carboxymethylcellulose (CMC)).
Turning to `O=c1[nH]cnc2nc(S(=O)(=O)F)[nH]c12`, the T/C was 117 % of control under setting [2], 121 % of control under setting [3] and 115 % of control under setting [4].
On to `CC(=O)OCC(=O)[C@@]1(O)CC[C@H]2[C@@H]3C=C(C)C4=CC(=O)CC[C@]4(C)[C@H]3[C@@H](O)C[C@@]21C`, for which the T/C was 36 % of control and 57 % of control (dose: 11.2 mg/kg/injection, schedule: Q01DX011 (sc), vehicle: steriod suspending solution); 42 % of control and 50 % of control (dose: 22.5 mg/kg/injection, schedule: Q01DX011 (sc), vehicle: steriod suspending solution); 23 % of control and 24 % of control (dose: 45.0 mg/kg/injection, schedule: Q01DX011 (sc), vehicle: steriod suspending solution); 15 % of control and 16 % of control (dose: 90.0 mg/kg/injection, schedule: Q01DX011 (sc), vehicle: steriod suspending solution); 10 % of control (dose: 180.0 mg/kg/injection, schedule: Q01DX011 (sc), vehicle: steriod suspending solution).
Take `CSc1ncn(C)c2ncnc1-2`: the T/C is, setting by setting: under setting [1], 58 % of control; under setting [2], 71 % of control.
Turning to `CC(C)Cn1cnc2c(SCc3ccc(Cl)cc3Cl)nc(N)nc21`, the T/C is 78 % of control (dose: 9.0 mg/kg/injection, schedule: Q01DX011 (ip), vehicle: other); 41 % of control (dose: 12.5 mg/kg/injection, schedule: Q01DX011 (ip), vehicle: methylcellulose (MC)); 78 % of control (dose: 18.0 mg/kg/injection, schedule: Q01DX011 (ip), vehicle: other); 65 % of control (dose: 25.0 mg/kg/injection, schedule: Q01DX011 (ip), vehicle: methylcellulose (MC)); 92 % of control (dose: 37.0 mg/kg/injection, schedule: Q01DX011 (ip), vehicle: other); 74 % of control (dose: 38.0 mg/kg/injection, schedule: Q01DX011 (ip), vehicle: methylcellulose (MC)). The T/C runs as follows: (dose: 50.0 mg/kg/injection, schedule: Q01DX011 (ip), vehicle: methylcellulose (MC)) 87 % of control; (dose: 75.0 mg/kg/injection, schedule: Q01DX011 (ip), vehicle: methylcellulose (MC)) 113 % of control; (dose: 100.0 mg/kg/injection, schedule: Q01DX011 (ip), vehicle: methylcellulose (MC)) 69 % of control; (dose: 150.0 mg/kg/injection, schedule: Q01DX011 (ip), vehicle: methylcellulose (MC)) 80 % of control; (dose: 200.0 mg/kg/injection, schedule: Q01DX011 (ip), vehicle: other) 7 % of control and 15 % of control; (dose: 300.0 mg/kg/injection, schedule: Q01DX011 (ip), vehicle: methylcellulose (MC)) 59 % of control. The T/C reads like this: (dose: 400.0 mg/kg/injection, schedule: Q01DX011 (ip), vehicle: other) 24 % of control; (dose: 600.0 mg/kg/injection, schedule: Q01DX011 (ip), vehicle: methylcellulose (MC)) 91 % of control.
As for `Nc1nc(SN=Nc2ccc(S(=O)(=O)O)cc2)c2[nH]cnc2n1`, the T/C is, setting by setting: (dose: 0.13 mg/kg/injection, schedule: Q01DX011 (sc), vehicle: alkali diluted with saline) 70 % of control; (dose: 0.25 mg/kg/injection, schedule: Q01DX011 (sc), vehicle: alkali diluted with saline) 48 % of control; (dose: 0.5 mg/kg/injection, schedule: Q01DX011 (ip), vehicle: alkali diluted with saline) 50 % of control; (dose: 0.5 mg/kg/injection, schedule: Q01DX011 (ip), vehicle: other) 46 % of control; (dose: 0.5 mg/kg/injection, schedule: Q01DX011 (sc), vehicle: alkali diluted with saline) 32 % of control; (dose: 1.0 mg/kg/injection, schedule: Q01DX011 (ip), vehicle: alkali diluted with saline) 12 % of control. Moreover, the T/C reads like this: (dose: 1.0 mg/kg/injection, schedule: Q01DX011 (ip), vehicle: other) 3 % of control; (dose: 2.0 mg/kg/injection, schedule: Q01DX011 (ip), vehicle: alkali diluted with saline) 1 % of control; (dose: 8.0 mg/kg/injection, schedule: Q01DX011 (ip), vehicle: alkali diluted with saline) 1 % of control.
In the case of `CC[C@]1(O)C[C@H]2CN(CCc3c([nH]c4ccccc34)[C@@](C(=O)OC)(c3cc4c(cc3OC)N(C=O)[C@H]3[C@@](O)(C(=O)OC)[C@H](OC(C)=O)[C@]5(CC)C=CCN6CC[C@]43[C@@H]65)C2)C1`, the T/C by setting is: (dose: 0.06 mg/kg/injection, schedule: Q01DX011 (ip), vehicle: saline) 95 % of control; (dose: 0.12 mg/kg/injection, schedule: Q01DX011 (ip), vehicle: saline) 173 % of control; (dose: 0.25 mg/kg/injection, schedule: Q01DX011 (ip), vehicle: saline) 54 % of control.
